Usually IC50 stands for the midpoint of a concentration-inhibition curve. Read a low IC50 as inhibition by little substance.

The structures appear in SMILES notation.

The results in this text go back to BindingDB's records for patent US12414952 (Merck Sharp & Dohme, 2025).

The experiment has as its target Adenosine receptor A2a (Homo sapiens, UniProt P29274). Briefly: A2a binding affinity assay C. On the procedure: Method (C): Measurement of A2a Binding Affinity Using an Alternative Radioligand Binding AssayMembranes used in this procedure were made by washing cell cultures twice with DPBS buffer (Dulbecco's phosphate buffered saline without calcium and magnesium, ThermoFisher Scientific, Cat. No. A1285601), and harvesting the cell cultures by mechanical scraping. The cells were collected by centrifugation and re-suspended in 10 mM HEPES, pH 7.4 containing 0.1 mM benzamidine (Sigma, Cat. No. B6506) and 0.1 mM PMSF (phenylmethylsulfonyl fluoride, Sigma, Cat. No. 10837091001). Cells were freeze-thawed twice in a dry ice/ethanol bath and homogenized with 25 to 30 strokes in a glass dounce homogenizer (Wheaton, Cat. No. 357546). Membranes were pelleted at 40,000×g for 20 min at 4° C. and re-suspended in assay buffer (5 mM HEPES, pH 7.4, 5 mM MgCl2; supplemented with 0.1 mM benzamidine) at a protein concentration of 2.6 mg/mL. Protein concentration was determined by the Bio-Rad method (Bio-Rad, Cat. No. 5000002). […] After normalization to total and non-specific binding, the percent effect at each compound concentration was calculated. The plot of percent effect versus the log of compound concentration was analyzed electronically using a 4-parameter logistic fit based on the Levenberg-Marquardt algorithm to generate IC50 values.

Chain of Adenosine receptor A2a (P29274 whole entry): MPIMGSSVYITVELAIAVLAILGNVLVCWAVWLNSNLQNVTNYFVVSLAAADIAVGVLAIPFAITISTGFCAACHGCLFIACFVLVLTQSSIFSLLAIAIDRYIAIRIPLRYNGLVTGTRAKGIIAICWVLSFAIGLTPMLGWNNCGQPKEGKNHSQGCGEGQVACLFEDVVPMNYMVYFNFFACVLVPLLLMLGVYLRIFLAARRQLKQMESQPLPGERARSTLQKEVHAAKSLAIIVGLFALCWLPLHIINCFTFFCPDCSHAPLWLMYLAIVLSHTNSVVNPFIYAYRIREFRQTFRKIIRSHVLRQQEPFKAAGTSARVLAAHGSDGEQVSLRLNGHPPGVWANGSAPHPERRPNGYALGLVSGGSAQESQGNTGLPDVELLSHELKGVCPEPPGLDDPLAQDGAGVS

Compound `Nc1nc(-c2ccccc2)c(C2CC2)c2nc(CCN3CC(F)(F)C3)nn12` [US12414952, Example 20.6] returned an IC50 of 122 nM.
